Results: patent publication US9670512B2, “Methods and compositions for producing fatty alcohols or fatty aldehydes” (REG Life Sciences, LLC, priority 2008, dated 2017)

Tests used:
[1] = biological target: T1, PCC7942_orf1594 protein (acyl-ACP reductase) (Synechococcus elongatus, UniProt Q54765); assay: acyl-ACP or acyl-CoA reductase enzyme assay with purified PCC7942_orf1594 protein; format: biochemical, Synechococcus elongatus PCC7942; conditions: for reduction of acyl substrate to fatty aldehyde by PCC7942_orf1594: GC/MS detection of octadecanal/octadecenal, NADPH and divalent cation required
T1 construct: His-tag (C); made in house; host or cells: E. coli BL21 (DE3)
T1 sequence (Q54765 1-341): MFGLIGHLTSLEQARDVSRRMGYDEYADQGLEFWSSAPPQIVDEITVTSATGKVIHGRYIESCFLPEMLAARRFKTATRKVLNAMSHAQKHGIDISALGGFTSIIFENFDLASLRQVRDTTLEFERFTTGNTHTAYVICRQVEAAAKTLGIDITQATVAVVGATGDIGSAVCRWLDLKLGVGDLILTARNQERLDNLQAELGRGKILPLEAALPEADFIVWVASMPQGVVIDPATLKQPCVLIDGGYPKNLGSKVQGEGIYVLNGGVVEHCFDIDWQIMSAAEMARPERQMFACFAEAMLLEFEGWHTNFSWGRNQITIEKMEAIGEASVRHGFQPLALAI
Description: The genomic DNA encoding S. elongatus […] orf1594 (SEQ ID NO:65) was cloned into the NcoI and XhoI sites of vector pET-28b under the control of the T7 promoter. The resulting PCC7942_orf1594 protein contained a C-terminal His-tag. An E. coli BL21 strain (DE3) (Invitrogen) was transformed with the plasmid and PCC7942_orf1594 protein was expressed and purified as described in Example 22. The protein solution was stored in the following buffer: 50 mM sodium phosphate, pH 7.5, 100 mM NaCl, 1 mM THP, 10% glycerol. Protein concentration was determined using the Bradford assay (Biorad). 2 mg/mL of PCC7942_orf1594 protein was obtained.
To test PCC7942_orf1594 protein for acyl-ACP or acyl-CoA reductase activity, the following enzyme assays were set-up. 100 μL reactions were set-up in 50 mM Tris-HCl buffer at pH 7.5 with the following components at their respective final concentrations: 10 μM of purified PCC7942_orf1594 protein, 0.01-1 mM acyl-CoA or acyl-ACP, 2 mM MgCl2, 0.2-2 mM NADPH. The reactions were incubated for 1 h at 37° C. and where stopped by adding 100 μL ethyl acetate (containing 5 mg/l 1-octadecene as internal standard). Samples were vortexed for 15 min and centrifuged at max speed for 3 min for phase separation. 80 μL of the top layer were transferred into GC glass vials and analyzed by GC/MS as described in Example 26. The amount of aldehyde formed was calculated based on the internal standard.

[2] = biological target: T2, Npun02004178 protein (fatty aldehyde decarbonylase) (Nostoc punctiforme, UniProt B2J1M1); assay: in-vitro fatty aldehyde decarbonylase assay with purified Npun02004178 protein; format: biochemical, Nostoc punctiforme PCC73102; conditions: 200 μM octadecanal, 30 μM Npun02004178, spinach ferredoxin, ferredoxin reductase and NADPH; 37° C., 2 h
T2 construct: His-tag (N); made in house; host or cells: E. coli BL21 (DE3)
T2 sequence (B2J1M1 1-232): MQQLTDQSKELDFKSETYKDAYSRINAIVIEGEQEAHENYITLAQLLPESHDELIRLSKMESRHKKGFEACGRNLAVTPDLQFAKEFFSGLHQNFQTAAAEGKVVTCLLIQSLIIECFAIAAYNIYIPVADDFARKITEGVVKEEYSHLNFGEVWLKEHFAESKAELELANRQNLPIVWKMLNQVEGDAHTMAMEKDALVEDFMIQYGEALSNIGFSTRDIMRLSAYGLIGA
Description: The genomic DNA encoding N. punctiforme PCC73102 Npun02004178 (SEQ ID NO:5) was cloned into the NdeI and XhoI sites of vector pET-15b under the control of the T7 promoter. The resulting Npun02004178 protein contained an N-terminal His-tag. An E. coli BL21 strain (DE3) (Invitrogen) was transformed with the plasmid by routine chemical transformation techniques. Protein expression was carried out by first inoculating a colony of the E. coli strain in 5 mL of LB media supplemented with 100 mg/L of carbenicillin and shaken overnight at 37° C. to produce a starter culture. This starter cultures was used to inoculate 0.5 L of LB media supplemented with 100 mg/L of carbenecillin. […] Protein concentration was determined using the Bradford assay (Biorad). […]
To test Npun02004178 protein for decarbonylation activity, the following enzyme assays were set-up. […] Samples were analyzed by GC/MS using the following parameters: run time: 13.13 min; column: HP-5-MS Part No. 19091S-433E (length of 30 meters; I.D.: 0.25 mm narrowbore; film: 0.25 iM); inject: 1 ii Agilent 6850 inlet; inlet: 300 C splitless; carrier gas: helium; flow: 1.3 mL/min; oven temp: 75° C. hold 5 min, 320 at 40° C./min, 320 hold 2 min; det: Agilent 5975B VL MSD; det. temp: 330° C.; scan: 50-550 M/Z. Heptadecane from Sigma was used as an authentic reference for determining compound retention time and fragmentation pattern. […]

Compound	reduction of acyl substrate to fatty aldehyde by PCC7942_orf1594 [1]	further results
NC(=O)C1=CN([C@@H]2O[C@H](COP(=O)(O)OP(=O)(O)OC[C@H]3O[C@@H](n4cnc5c(N)ncnc54)[C@H](O)[C@@H]3O)[C@@H](O)[C@H]2O)C=CC1 [NADH, reference compound]		support of reductase activity as electron donor ([1]; octadecanoyl-CoA as substrate, Mg2+): did not support reductase activity
NC(=O)C1=CN([C@@H]2O[C@H](COP(=O)(O)OP(=O)(O)OC[C@H]3O[C@@H](n4cnc5c(N)ncnc54)[C@H](OP(=O)(O)O)[C@@H]3O)[C@@H](O)[C@H]2O)C=CC1 [NADPH, reference compound]		Km ([1]; in the presence of 0.5 mM octadecanoyl-CoA, read-out: Km value for NADPH): 400 ± 80 µM
CCCCCCCCCCCCCCCCCC=O [octadecanal]		in-vitro decarbonylation to heptadecane [2]: in-vitro conversion of octadecanal to heptadecane was observed
CCCCCCCCCCCCCCCCCC(=O)SCCNC(=O)CCNC(=O)[C@H](O)C(C)(C)COP(=O)(O)OP(=O)(O)OC[C@H]1O[C@@H](n2cnc3c(N)ncnc32)[C@H](O)[C@@H]1OP(=O)(O)O [octadecanoyl-CoA]	able to reduce octadecanoyl-CoA to octadecanal	
octadecenoyl-ACP	also able to reduce	
octadecenoyl-CoA	also able to reduce	
